Data published in patent US5021427A, “Novel pyrrolizidine alkaloid” (The Board of Regents, The University of Texas System, priority 1988, dated 1991).
Read-outs that look alike come from different tables or passages of the source.

Experiments:
alpha-galactosidase = alpha-galactosidase inhibition; format: biochemical, Aspergillus niger
uninfected MDCK cells [1] = assay: incorporation of [3H]leucine into protein (protein synthesis)
Description: (§2) The cells then were incubated for 15-120 min with either [2-^3 H]mannose (20 micro Ci/ml) or [4,5-^3 H]leucine (10 micro Ci/ml) to label lipid-linked saccharides and cellular proteins, respectively. At the end of the labeling period, the medium was removed by aspiration, and the monolayers were washed 3 times with PB S. One ml of PBS was added to each well, the cells were dislodged by scraping, and were then quantitatively transferred to reaction tubes. Each well was washed with another 1 ml of PBS and this rinse was also added to the initial tube. […] For the incorporation of radiolabel into protein, cells were extracted with TCA at a final concentration of 20% in the presence of 500 micro g of bovine serum albumin. Following an overnight incubation at 4° C., precipitated protein was isolated by centrifugation. The precipitate was washed twice with 5% TCA, and once with absolute methanol, and then digested with Pronase as described above. Pronase-released radioactivity was measured by liquid scintillation counting.
(§3) Uninfected MDCK cells were grown in 6well Limbro tissue culture dishes.
(§4) confluency, australine was added to some wells to the final concentration
(§5) After a 2 hours incubation to allow the alkaloid to take
At the times shown, the medium
(§6) was removed by aspiration, and the monolayers were washed three times wit
(§7) PBS. The cells were released from the wells by scraping, placed in tubes,
(§8) and extracted with 20% TCA as described above. Radioactivity incorporated
(§9) into total cellular protein was determined after Pronase digestion by
liquid scintillation counting.

beta-galactosidase = beta-galactosidase inhibition; format: biochemical, bovine
[2] = test system: human immunodeficiency virus (HIV-1); assay: replication of HIV-1 in tissue culture cells; format: cell-based
uninfected MDCK cells [3] = details: 50 micro g/ml, 60 min
Description: (§10) The cells then were incubated for 15-120 min with either [2-^3 H]mannose (20 micro Ci/ml) or [4,5-^3 H]leucine (10 micro Ci/ml) to label lipid-linked saccharides and cellular proteins, respectively. At the end of the labeling period, the medium was removed by aspiration, and the monolayers were washed 3 times with PB S. One ml of PBS was added to each well, the cells were dislodged by scraping, and were then quantitatively transferred to reaction tubes. Each well was washed with another 1 ml of PBS and this rinse was also added to the initial tube. Radioactivity incorporated into lipid-linked monosaccharides and oligosaccharides was determined after extraction with chloroform:methanol:water (1:1:1) and chloroform:methanol:water (10:10:3), respectively, as previously described (60).
(§11) Uninfected MDCK cells were grown in 6well Limbro tissue culture dishes. A
as §4
(§12) listed above. After a 2 hour incubation to allow the alkaloid to take
(§13) effect, [^3 H]mannose was added to a final concentration of 20 micro
(§14) Ci/ml, and the incubations were continued. At the times shown, the medium
as §6, §7
(§15) then sequentially extracted with chloroform:methanol:water (1:1:1) for
(§16) lipidlinked monosaccharides, and chloroform:methanol:water (10:10:3) for
(§17) lipidlinked oligosaccharides. The total radioactivity incorporated into
(§18) the lipidlinked sugars was determined by liquid scintillation counting.

Beta-Mannosidase = Beta-Mannosidase (Aspergillus niger, UniProt Q9UUZ3); assay: beta-mannosidase inhibition; format: biochemical
Chain of Beta-Mannosidase (Q9UUZ3 22-931): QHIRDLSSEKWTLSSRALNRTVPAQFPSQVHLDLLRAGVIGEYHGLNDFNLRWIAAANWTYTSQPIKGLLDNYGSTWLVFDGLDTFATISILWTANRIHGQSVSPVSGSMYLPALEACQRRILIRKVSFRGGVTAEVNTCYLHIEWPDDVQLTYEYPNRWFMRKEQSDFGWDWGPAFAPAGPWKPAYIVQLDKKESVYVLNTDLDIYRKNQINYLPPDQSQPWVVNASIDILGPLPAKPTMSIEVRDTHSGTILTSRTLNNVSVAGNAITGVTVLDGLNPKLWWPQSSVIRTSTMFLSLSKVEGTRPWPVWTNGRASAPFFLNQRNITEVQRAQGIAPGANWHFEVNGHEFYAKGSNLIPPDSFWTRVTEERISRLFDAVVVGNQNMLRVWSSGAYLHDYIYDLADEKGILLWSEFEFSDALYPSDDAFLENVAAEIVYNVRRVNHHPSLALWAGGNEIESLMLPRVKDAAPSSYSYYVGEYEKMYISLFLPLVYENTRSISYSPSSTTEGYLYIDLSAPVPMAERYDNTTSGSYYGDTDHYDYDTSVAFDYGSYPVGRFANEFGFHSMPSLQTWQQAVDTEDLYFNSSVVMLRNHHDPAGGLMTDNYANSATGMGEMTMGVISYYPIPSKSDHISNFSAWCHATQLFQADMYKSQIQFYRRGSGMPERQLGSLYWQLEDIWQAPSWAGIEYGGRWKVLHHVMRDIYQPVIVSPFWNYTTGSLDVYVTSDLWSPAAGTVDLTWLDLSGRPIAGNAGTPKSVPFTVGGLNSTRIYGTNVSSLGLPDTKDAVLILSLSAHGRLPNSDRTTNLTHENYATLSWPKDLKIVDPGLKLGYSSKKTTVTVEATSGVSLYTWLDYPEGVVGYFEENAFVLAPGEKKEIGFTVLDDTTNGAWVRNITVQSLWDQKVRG

alpha-mannosidase = target: T1, alpha-mannosidase (Canavalia ensiformis, UniProt C0HJB3); assay: alpha-mannosidase inhibition; format: biochemical, jack bean
T1 construct: purchased Sigma Chemical Company
T1 sequence (C0HJB3 whole entry): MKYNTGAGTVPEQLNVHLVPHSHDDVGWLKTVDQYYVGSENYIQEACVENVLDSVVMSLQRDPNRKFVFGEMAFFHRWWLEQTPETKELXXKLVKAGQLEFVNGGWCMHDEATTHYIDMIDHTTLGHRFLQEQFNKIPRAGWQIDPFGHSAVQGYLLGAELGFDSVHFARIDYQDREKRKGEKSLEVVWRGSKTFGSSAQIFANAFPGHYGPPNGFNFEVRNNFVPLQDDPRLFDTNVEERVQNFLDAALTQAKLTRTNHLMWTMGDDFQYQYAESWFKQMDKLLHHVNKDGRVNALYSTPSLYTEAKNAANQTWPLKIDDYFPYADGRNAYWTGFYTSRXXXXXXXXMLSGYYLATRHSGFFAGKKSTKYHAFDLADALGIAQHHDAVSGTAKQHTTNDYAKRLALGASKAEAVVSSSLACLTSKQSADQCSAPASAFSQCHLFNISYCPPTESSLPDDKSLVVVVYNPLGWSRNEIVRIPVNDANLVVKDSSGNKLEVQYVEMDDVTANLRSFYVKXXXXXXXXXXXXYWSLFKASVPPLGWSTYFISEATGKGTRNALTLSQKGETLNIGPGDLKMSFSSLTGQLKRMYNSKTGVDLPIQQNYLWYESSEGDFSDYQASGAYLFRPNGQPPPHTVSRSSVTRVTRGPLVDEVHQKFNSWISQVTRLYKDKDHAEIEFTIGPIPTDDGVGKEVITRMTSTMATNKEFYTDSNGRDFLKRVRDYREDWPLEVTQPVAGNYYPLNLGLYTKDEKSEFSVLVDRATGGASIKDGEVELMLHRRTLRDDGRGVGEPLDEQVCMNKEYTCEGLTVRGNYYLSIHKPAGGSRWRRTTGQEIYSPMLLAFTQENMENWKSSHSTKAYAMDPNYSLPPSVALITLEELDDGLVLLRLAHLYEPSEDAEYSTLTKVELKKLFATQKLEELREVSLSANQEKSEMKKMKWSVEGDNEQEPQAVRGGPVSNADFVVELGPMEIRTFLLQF

[4] = test system: influenza virus glycoproteins in infected MDCK cells; assay: glycoprotein processing in influenza virus-infected MDCK cells (Endo H-sensitive oligosaccharides); details: mannose-labeled glycopeptide, printed as 10 micro g/ml
intestinal sucrase = target: T2, intestinal sucrase (Homo sapiens, UniProt P14410); assay: intestinal sucrase activity, sucrose as substrate; format: biochemical
T2 construct: from tissue
T2 sequence (P14410 whole entry): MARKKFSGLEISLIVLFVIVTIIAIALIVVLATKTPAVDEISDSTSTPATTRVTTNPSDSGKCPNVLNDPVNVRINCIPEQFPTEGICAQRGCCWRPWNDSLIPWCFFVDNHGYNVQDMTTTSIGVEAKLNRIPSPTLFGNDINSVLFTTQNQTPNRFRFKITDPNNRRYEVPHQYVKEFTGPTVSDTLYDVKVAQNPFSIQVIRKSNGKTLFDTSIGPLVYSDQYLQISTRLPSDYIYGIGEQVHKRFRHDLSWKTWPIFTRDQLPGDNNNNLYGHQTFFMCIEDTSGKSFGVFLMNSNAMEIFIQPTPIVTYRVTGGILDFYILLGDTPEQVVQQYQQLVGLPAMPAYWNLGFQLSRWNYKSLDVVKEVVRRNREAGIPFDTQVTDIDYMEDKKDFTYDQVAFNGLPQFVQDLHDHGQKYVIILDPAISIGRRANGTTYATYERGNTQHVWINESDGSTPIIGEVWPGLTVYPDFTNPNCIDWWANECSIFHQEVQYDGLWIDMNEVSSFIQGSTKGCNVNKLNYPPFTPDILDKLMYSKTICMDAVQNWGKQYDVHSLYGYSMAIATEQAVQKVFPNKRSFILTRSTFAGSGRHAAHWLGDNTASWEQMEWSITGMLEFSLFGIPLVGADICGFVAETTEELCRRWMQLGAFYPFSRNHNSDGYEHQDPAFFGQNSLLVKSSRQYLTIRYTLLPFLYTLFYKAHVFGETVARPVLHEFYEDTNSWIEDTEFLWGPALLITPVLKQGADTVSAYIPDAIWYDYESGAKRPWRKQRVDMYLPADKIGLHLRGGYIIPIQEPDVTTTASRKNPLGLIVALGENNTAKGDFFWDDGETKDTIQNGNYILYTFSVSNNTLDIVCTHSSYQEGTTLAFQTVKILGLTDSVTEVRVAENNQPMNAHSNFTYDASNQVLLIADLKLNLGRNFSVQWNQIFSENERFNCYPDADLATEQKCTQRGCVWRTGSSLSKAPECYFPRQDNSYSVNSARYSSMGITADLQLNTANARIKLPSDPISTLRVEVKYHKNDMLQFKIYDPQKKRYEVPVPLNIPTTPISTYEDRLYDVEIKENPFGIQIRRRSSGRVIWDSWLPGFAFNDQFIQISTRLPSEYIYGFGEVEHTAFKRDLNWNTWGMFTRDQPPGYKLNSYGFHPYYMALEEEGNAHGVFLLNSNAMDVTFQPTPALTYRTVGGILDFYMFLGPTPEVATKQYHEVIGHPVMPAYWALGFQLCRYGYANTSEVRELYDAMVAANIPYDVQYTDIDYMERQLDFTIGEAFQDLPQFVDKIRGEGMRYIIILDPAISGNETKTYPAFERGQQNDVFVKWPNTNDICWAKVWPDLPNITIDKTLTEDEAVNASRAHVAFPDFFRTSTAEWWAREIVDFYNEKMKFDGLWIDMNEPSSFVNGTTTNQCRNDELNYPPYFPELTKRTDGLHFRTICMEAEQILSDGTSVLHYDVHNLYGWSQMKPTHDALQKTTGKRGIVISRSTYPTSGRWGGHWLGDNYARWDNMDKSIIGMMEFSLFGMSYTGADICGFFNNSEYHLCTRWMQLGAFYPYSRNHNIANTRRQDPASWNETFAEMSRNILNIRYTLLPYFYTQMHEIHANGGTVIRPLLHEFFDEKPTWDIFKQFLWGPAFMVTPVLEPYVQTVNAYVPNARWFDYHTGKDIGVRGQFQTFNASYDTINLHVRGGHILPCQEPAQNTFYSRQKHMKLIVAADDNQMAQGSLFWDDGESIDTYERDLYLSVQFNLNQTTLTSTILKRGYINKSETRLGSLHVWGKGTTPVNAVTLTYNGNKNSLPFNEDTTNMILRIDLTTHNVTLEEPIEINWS
Description: (§1) (B) Sucrase and Maltase. Intestinal sucrase and maltase activities were determined by measuring the formation of reducing sugar from sucrose and maltitol, respectively. The reaction mixture contained 7.5 micromoles sodium citrate buffer, pH 6, 9 micromoles of substrate (sucrose or maltitol), and enzyme, in a final volume of 0.3 ml. […] For both enzymes, activity was proportional with time, and amount of protein. As described above for the arylglycosidases, inhibitors were preincubated with enzyme prior to the addition of substrate.

uninfected MDCK cells [5] = assay: incorporation of [3H]mannose into lipid-linked saccharides
Description: as §10, §11, §4, §12, §13, §14, §6, §7, §15, §16, §17, §18

glucosidase II = assay: processing glucosidase II, release of p-nitrophenol from p-nitrophenyl-alpha-D-glucoside; format: biochemical, mung bean
intestinal maltase = intestinal maltase activity, maltitol as substrate; format: biochemical
Description: as §1

amyloglucosidase = target: T3, amyloglucosidase (Aspergillus niger, UniProt P69328); assay: amyloglucosidase (alpha-glucosidase) inhibition, p-nitrophenyl-alpha-D-glucoside substrate; format: biochemical
T3 construct: purchased Sigma Chemical Company
T3 sequence (P69328 25-640): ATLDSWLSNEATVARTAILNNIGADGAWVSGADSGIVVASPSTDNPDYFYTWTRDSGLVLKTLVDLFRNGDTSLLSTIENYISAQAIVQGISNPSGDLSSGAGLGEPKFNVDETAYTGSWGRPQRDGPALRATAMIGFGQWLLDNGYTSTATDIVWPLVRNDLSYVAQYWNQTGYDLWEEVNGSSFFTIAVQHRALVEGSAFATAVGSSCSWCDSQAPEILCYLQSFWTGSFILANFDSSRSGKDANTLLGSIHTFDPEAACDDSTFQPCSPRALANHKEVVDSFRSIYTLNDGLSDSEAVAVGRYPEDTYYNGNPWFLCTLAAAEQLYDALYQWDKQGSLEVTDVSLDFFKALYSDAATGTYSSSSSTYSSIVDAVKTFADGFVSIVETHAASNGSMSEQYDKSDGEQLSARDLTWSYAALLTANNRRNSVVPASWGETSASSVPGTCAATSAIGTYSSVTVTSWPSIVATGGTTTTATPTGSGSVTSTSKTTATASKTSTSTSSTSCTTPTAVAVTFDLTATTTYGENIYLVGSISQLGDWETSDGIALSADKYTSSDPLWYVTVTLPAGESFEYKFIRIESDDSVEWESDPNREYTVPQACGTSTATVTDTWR

uninfected MDCK cells [6] = test system: uninfected MDCK cells
Description: as §2, §3, §4, §5
At the times shown, the medium
as §6, §7, §8, §9
liquid scintillation counting.

glucosidase I = assay: processing glucosidase I, release of [3H]glucose from Glc3Man9GlcNAc; format: biochemical, mung bean
beta-glucosidase = beta-glucosidase inhibition, p-nitrophenyl-glycoside substrate; format: biochemical, almonds
[7] = test system: influenza virus glycoproteins in infected MDCK cells; details: cited from earlier work
glycosidases = assay: glycosidase inhibitory activity against generally available glycosidases; format: biochemical
From the text: GENERAL EX[…]. The alkaloids were monitored for purity by tlc on 0.25 mm silica gel plates developed with CHCl3 :MeOH:HN4 OH:H2 O (70:26:2:2) and detected by spraying with acetic anhydride followed by Ehrlich's reagent (21). Homogeneity was also checked by gc of the TMS derivatives, prepared by treatment with MSTFA in pyridine, on a Hewlett-Packard 5830 instrument equipped with a flame-ionization detector, on-column injector, and a 30-m×0.32-mm i.d. SE-30 fused silica column. Low resolution electron and ammonia chemical ionization mass spectra were obtained on a VG Micromass 7070 mass spectrometer; high resolution mass measurements were determined on the same instrument. Optical rotations were measured in a 1-dm cell on a Perkin-Elmer 241 automatic polarimeter. Nuclear magnetic resonance spectra were determined in D2 O on a Nicolet NTC 200FT spectrometer with software package at 200 MHz (^1 H) and at 50.3 MHz (^13 C) using 3-(trimethylsilyl)-1-propanesulfonic acid (TSP) as an internal standard. Multiplicities for ^13 C signals were determined by application of the carbon attached proton test (CAPT) sequence. Preparative centrifugal tlc was performed on a Chromatotron Model 7924 (Harrison Research, Palo Alto, Calif.). Enzyme assay methods have been previously described (67), Melting points are uncorrected.

[8] = concentrations up to 500 micro M

## OC[C@@H]1[C@@H](O)[C@H](O)[C@H]2[C@@H](O)CCN21 [australine, (1R, 2R, 3R, 7S, 7aR)-3-hydroxymethyl-1,2,7-trihydroxypyrrolizidine]
alpha-galactosidase
  inhibition of alpha-galactosidase: No significant inhibition
alpha-galactosidase; [8]
  effect on alpha-galactosidase: no apparent effect
Uninfected MDCK cells [1]; 50 micro ug/ml, 60 min
  Radioactivity incorporated into protein: 16572 cpm
Uninfected MDCK cells [1]; 50 micro ug/ml, 90 min
  Radioactivity incorporated into protein: 23341 cpm
Uninfected MDCK cells [1]; 50 micro ug/ml, 120 min
  Radioactivity incorporated into protein: 33704 cpm
Uninfected MDCK cells [1]; 50 to 500 micro g/ml, times up to 120 min
  effect on overall rate of protein synthesis: little effect
Uninfected MDCK cells [1]; 250 micro ug/ml, 30 min
  Radioactivity incorporated into protein: 8064 cpm
Uninfected MDCK cells [1]; 250 micro ug/ml, 60 min
  Radioactivity incorporated into protein: 13604 cpm
Uninfected MDCK cells [1]; 250 micro ug/ml, 90 min
  Radioactivity incorporated into protein: 27776 cpm
Uninfected MDCK cells [1]; 250 micro ug/ml, 120 min
  Radioactivity incorporated into protein: 36140 cpm
Uninfected MDCK cells [1]; 500 micro ug/ml, 30 min
  Radioactivity incorporated into protein: 9124 cpm
Uninfected MDCK cells [1]; 500 micro ug/ml, 60 min
  Radioactivity incorporated into protein: 15648 cpm
Uninfected MDCK cells [1]; 500 micro ug/ml, 90 min
  Radioactivity incorporated into protein: 26060 cpm
Uninfected MDCK cells [1]; 500 micro ug/ml, 120 min
  Radioactivity incorporated into protein: 32704 cpm
beta-galactosidase
  inhibition of beta-galactosidase: No significant inhibition
beta-galactosidase; [8]
  effect on beta-galactosidase: no apparent effect
[2]
  inhibition of HIV-1 replication: inhibited the growth of the virus, but this alkaloid was not as effective as an inhibitor as was castanospermine
Uninfected MDCK cells [3]
  Radioactivity, Lipid-linked oligosaccharides: 1077 cpm
Beta-Mannosidase
  inhibition of beta-mannosidase: No significant inhibition
Beta-Mannosidase; [8]
  effect on beta-mannosidase: no apparent effect
alpha-mannosidase
  inhibition of alpha-mannosidase: No significant inhibition
alpha-mannosidase; [8]
  effect on alpha-mannosidase: no apparent effect
[4]
  Endo H-released proportion: 55%
Intestinal sucrase
  Ki: ~28 µM
Uninfected MDCK cells [5]; 50-500 micro g/ml
  incorporation of [3H]mannose into lipid-linked oligosaccharide: appeared to be stimulated
Uninfected MDCK cells [5]; 50 micro g/ml, 15 min
  Radioactivity, Lipid-linked monosaccharides: 97 cpm
  Radioactivity, Lipid-linked oligosaccharides: 1672 cpm
Uninfected MDCK cells [5]; 50 micro g/ml, 30 min
  Radioactivity, Lipid-linked monosaccharides: 122 cpm
  Radioactivity, Lipid-linked oligosaccharides: 5021 cpm
Uninfected MDCK cells [5]; 50 micro g/ml, 60 min
  Radioactivity, Lipid-linked monosaccharides: 229 cpm
Uninfected MDCK cells [5]; 100 micro g/ml, 15 min
  Radioactivity, Lipid-linked monosaccharides: 101 cpm
  Radioactivity, Lipid-linked oligosaccharides: 2336 cpm
Uninfected MDCK cells [5]; 100 micro g/ml, 30 min
  Radioactivity, Lipid-linked monosaccharides: 151 cpm
  Radioactivity, Lipid-linked oligosaccharides: 5335 cpm
Uninfected MDCK cells [5]; 100 micro g/ml, 60 min
  Radioactivity, Lipid-linked monosaccharides: 244 cpm
  Radioactivity, Lipid-linked oligosaccharides: 1104 cpm
Uninfected MDCK cells [5]; 250 micro g/ml, 15 min
  Radioactivity, Lipid-linked monosaccharides: 107 cpm
  Radioactivity, Lipid-linked oligosaccharides: 2073 cpm
Uninfected MDCK cells [5]; 250 micro g/ml, 30 min
  Radioactivity, Lipid-linked monosaccharides: 115 cpm
  Radioactivity, Lipid-linked oligosaccharides: 5661 cpm
Uninfected MDCK cells [5]; 250 micro g/ml, 60 min
  Radioactivity, Lipid-linked monosaccharides: 212 cpm
  Radioactivity, Lipid-linked oligosaccharides: 995 cpm
Uninfected MDCK cells [5]; 500 micro g/ml, 15 min
  Radioactivity, Lipid-linked monosaccharides: 96 cpm
  Radioactivity, Lipid-linked oligosaccharides: 2957 cpm
Uninfected MDCK cells [5]; 500 micro g/ml, 30 min
  Radioactivity, Lipid-linked monosaccharides: 178 cpm
  Radioactivity, Lipid-linked oligosaccharides: 6167 cpm
Uninfected MDCK cells [5]; 500 micro g/ml, 60 min
  Radioactivity, Lipid-linked monosaccharides: 236 cpm
  Radioactivity, Lipid-linked oligosaccharides: 1108 cpm
Glucosidase II; [8]
  activity against glucosidase II: no activity
Intestinal maltase
  Ki: ~35 µM
amyloglucosidase; Example 2, p-nitrophenyl-alpha-D-glucoside substrate, read-out: apparent Ki
  Ki: 5.8 µM
amyloglucosidase; Lineweaver-Burk, 0.5 and 1 micro g/ml australine
  type of inhibition: competitive
Uninfected MDCK cells [6]; 50 micro ug/ml, 30 min
  Radioactivity incorporated into protein: 9252 cpm
Uninfected MDCK cells [6]; 100 micro ug/ml, 30 min
  Radioactivity incorporated into protein: 8304 cpm
Uninfected MDCK cells [6]; 100 micro ug/ml, 60 min
  Radioactivity incorporated into protein: 1588 cpm
Uninfected MDCK cells [6]; 100 micro ug/ml, 90 min
  Radioactivity incorporated into protein: 25636 cpm
Uninfected MDCK cells [6]; 100 micro ug/ml, 120 min
  Radioactivity incorporated into protein: 32008 cpm
Glucosidase I
  Ki: ~20 µM
beta-glucosidase
  inhibition of beta-glucosidase: No significant inhibition
beta-glucosidase; at 66 micro M
  inhibition of beta-glucosidase activity: less than 5%

## O[C@H]1[C@H](O)[C@@H](O)CN2CC[C@H](O)[C@H]12 [castanospermine, reference compound]
[7]
  concentration producing the same degree of inhibition (increased proportion of Endo H-susceptible glycopeptides) as 500 micro g/ml australine: 10 micro g/ml
Intestinal sucrase
  Ki: < 1 µM
Glucosidase II
  inhibition of glucosidase II: inhibited by micromolar amounts
Intestinal maltase
  Ki: < 1 µM
amyloglucosidase; Example 1, read-out: Ki
  Ki: 7.9 µM
Glucosidase I
  Ki: ~1 µM
beta-glucosidase
  inhibition of beta-glucosidase: inhibited
beta-glucosidase; read-out: level which inhibited 50% of the beta-glucosidase activity
  IC50: 66 µM

## OC[C@H]1NCC[C@@H](O)[C@@H]1O [fagomine, 1,2,5-trideoxy-1,5-imino-D-arabino-hexitol, reference compound]
alpha-galactosidase
  inhibition of alpha-galactosidase: No significant glycosidase inhibitory activity
beta-galactosidase
  inhibition of beta-galactosidase: No significant glycosidase inhibitory activity
Beta-Mannosidase
  inhibition of beta-mannosidase: No significant glycosidase inhibitory activity
glycosidases
  glycosidase inhibitory activity: no inhibitory activity
alpha-mannosidase
  inhibition of alpha-mannosidase: No significant glycosidase inhibitory activity
amyloglucosidase; commercially available enzyme
  glycosidase inhibitory activity against alpha-glucosidase: No significant glycosidase inhibitory activity
beta-glucosidase
  inhibition of beta-glucosidase: No significant glycosidase inhibitory activity

## OC[C@@H]1[C@@H]2[C@H](O)CCN2C[C@H]1O [rosmarinecine]
glycosidases
  glycosidase inhibitory activity: lack glycosidase inhibitory activity
